PMC6446301, “Evaluation of therapeutic effects of FAK inhibition in murine models of atherosclerosis” (BMC Research Notes, 2019)
pIC50: −log10 of the molar value.

Key:
[1] = Clinical biochemistry markers in serum, intervention trial apoE KO mice; assay type: in vivo, mouse; conditions: Intervention (6 + 6 weeks), mean ± SEM
Description: (§1) To assess the therapeutic effect of FAK inhibition, the following three different designs were applied: prevention (1) and therapeutic intervention (2) in apoE KO mice, and therapeutic intervention (3) in LDLr KO mice. The prevention trial consisted of 8-week concurrent treatment with the HF/HC diet following 1 week of pre-loading of the HF/HC diet (Additional file 3: Figure S2A). The therapeutic intervention trial consisted of 6- and 8-week treatment after 6- and 8-week pre-loading of the HF/HC diet in apoE KO and LDLr KO mice, respectively (Additional file 3: Figure S2B). Body weight and food intake were measured once weekly. The mice were euthanized under terminal inhalation anesthesia with isoflurane followed by blood collection from abdominal vein.
(§2) Atherosclerotic lesion area was evaluated in the aorta by en face analysis (Additional file 4: Figure S3A) and in aortic root by cross-sectional analysis (Additional file 4: Figure S3B). The aorta was subjected to Sudan IV staining, and total area of the plaque lesion (TAOL) and area of whole aorta from arch without the region of brachiocephalic artery to common iliac artery (AOWA) were measured using the Definiens imaging software. Area of lesion (%) was calculated by the following formula; Area of lesion (%) = TAOL/AOWA × 100. After en face analysis, the aorta was washed and then blotted dry, weighed, minced, and total lipid was extracted with chloroform/methanol. Total and free cholesterol levels in the aortic extracts were determined with an enzymatic colorimetric assay (Wako Pure Chemical Industries Ltd.). Cross sections were cut at 5 μm thickness and 6 serial sections were collected every 50 μm along the aortic root. Lesion area analysis was made on the cross sections subjected to hematoxylin and eosin (HE) staining. Three representative sections derived from 3 segments were quantified per mouse. Lesion area values from the 3 sections were summed up. Histological features using serial cross sections were subjected to staining for EvG and anti Mac-3 antigen. Clinical biochemistry markers in serum was evaluated using DRICHEM 7000 (FUJIFILM Medical, Japan). Statistical comparison of control and compound 12-treated groups was carried out with a Mann–Whitney test (two-tailed) using GraphPad Prism.
(§3) Data are mean ± SEM. *; P < 0.05, **; P < 0.01 ***; P < 0.001 as compared with the control.

apoE KO mice [2] = assay: Atherosclerosis prevention trial in apoE KO mice; assay type: in vivo, mouse
Procedure: (§4) The mutant male mice, apoE KO (B6.129P2-Apoe^tm1Unc/J) and LDLr KO (B6.129S7-Ldlr^tm1Her/J) at the age of 7 weeks, were purchased from Charles River Laboratories, and acclimated to the facility for 7 days. The mice were housed at 25 °C with a 12:12 h light–dark cycle, and food and water were provided ad libitum. The HF/HC diet D12108 containing 1.25% cholesterol and 20% fat was purchased from Research Diets. A selective small molecule FAK inhibitor Compound 12 (Additional file 1: Figure S1; a 2-phenylamino-pyrimidin-4-ylamino-2,3-dihydro-isoindol-1-one derivative) was administrated as food admixture at a concentration of 0.03%. Compound 12 has an IC50 of 6 nM on FAK and no activity on insulin receptor kinase, insulin-like growth factor 1 receptor kinase, cyclin-dependent kinase 1 and Src (Additional file 2: Table S1) as described by Kawahara et al.).
as §1, §2

c-Src = conditions: cited from earlier work
FAK = conditions: cited from earlier work
[3] = Clinical biochemistry markers in serum, prevention trial apoE KO mice; assay type: in vivo, mouse; conditions: Prevention (8 weeks), mean ± SEM
Description: as §1, §2, §3

apoE KO mice [4] = assay: Atherosclerosis therapeutic intervention trial in apoE KO mice; assay type: in vivo, mouse
Procedure: as §4, §1, §2

[5] = system: CDK1 (cyclin-dependent kinase 1); conditions: cited from earlier work
[6] = system: IGF-1R (insulin-like growth factor 1 receptor kinase); conditions: cited from earlier work
[7] = system: IRK (insulin receptor kinase); conditions: cited from earlier work
[8] = Clinical biochemistry markers in serum, intervention trial LDLr KO mice; assay type: in vivo, mouse; conditions: Intervention (8 + 8 weeks), mean ± SEM
Description: as §1, §2, §3

LDLr KO mice = assay: Atherosclerosis therapeutic intervention trial in LDLr KO mice; assay type: in vivo, mouse; conditions: 0.03% food admixture
Procedure: as §4, §1, §2

[9] = means, radiolabeled ATP, DELFIA or TR-FRET method
[10] = therapeutic intervention, 0.03% food admixture

For `COc1ccc(Nc2ncc(Cl)c(Nc3ccc(N4CCC(N5CCN(C)CC5)CC4)c4c3C(=O)N(C)C4)n2)c(OC)c1` [Compound 12, 7-[5-Chloro-2-(2,4-dimethoxy-phenylamino)-pyrimidin-4-ylamino]-2-methyl-4-[4-(4-methyl-piperazin-1-yl)-piperidin-1-yl]-2,3-dihydro-isoindol-1-one], the ALB [1] was 2.3 ± 0.04 g/dL, the ALP [1] was 469 ± 37^*** U/L and the ALT [1] was 26 ± 1.3 U/L. It also gave an AST [1] of 108 ± 7.0 U/L, a BUN [1] of 42 ± 2.5 mg/dL and a CPK [1] of 227 ± 48 U/L. The CRE [1] was 0.3 ± 0.02^*** mg/dL, the LDH [1] was 590 ± 36^* U/L and the T-BIL [1] was 0.5 ± 0.05 mg/dL. The T-Chol [1] was 1,016 ± 53^* mg/dL, the TG [1] was 93 ± 6.7^** mg/dL and the body weight change (apoE KO mice [2]; 0.03% food admixture) was “no remarkable changes”. The food intake (apoE KO mice [2]; 0.03% food admixture) was “no remarkable changes”, the tolerability (apoE KO mice [2]; 0.03% food admixture) was “generally well tolerated” and the “histological features of atherosclerotic plaques (HE, EvG, anti Mac-3)” value (apoE KO mice [2]; 8 weeks, 0.03% food admixture) was “foam cell rich, reduced fibrous and lipid core regions”. For the same compound, the “reduction of lesion area of the aorta (en face analysis) vs control” value (apoE KO mice [2]; 8 weeks, 0.03% food admixture with HF/HC diet) was 41.2%, the “cholesterol content in aorta” value (apoE KO mice [2]; 8 weeks, 0.03% food admixture, P < 0.01 vs control) was “significantly reduced” and the “lesion area of aortic root (cross-sectional analysis)” value (apoE KO mice [2]; 8 weeks, 0.03% food admixture, P < 0.05 vs control) was “significantly reduced”. For the same compound, the “lesion area of the aorta (en face analysis, TAOL/AOWA x 100)” value (apoE KO mice [2]; 8 weeks, 0.03% food admixture, control 8.92%) was 5.24%, the “activity on Src” value (c-Src) was “no activity” and the pIC50 (c-Src; [9]) was < 5.00. For the same compound, the pIC50 (FAK) was 8.22, the ALB [3] was 2.2 ± 0.07^* g/dL and the ALP [3] was 554 ± 31^** U/L. For the same compound, the ALT [3] was 25 ± 1.6 U/L, the AST [3] was 115 ± 15 U/L and the BUN [3] was 41 ± 2.5 mg/dL. The CPK [3] was 700 ± 362 U/L, the CRE [3] was 0.3 ± 0.02^*** mg/dL and the Glc [3] was 167 ± 16 mg/dL. For the same compound, the Insulin [3] was 751 ± 109 pg/mL, the LDH [3] was 535 ± 47^** U/L and the T-BIL [3] was 0.5 ± 0.03 mg/dL. The T-Chol [3] was 1,221 ± 102^* mg/dL, the TG [3] was 94 ± 8.4^* mg/dL and the “lesion area of aortic root (cross-sectional analysis)” value (apoE KO mice [4]; intervention 6 + 6 weeks, 0.03% food admixture) was “appeared to be reduced”. The “cholesterol content in aorta” value (apoE KO mice [4]; intervention 6 + 6 weeks, 0.03% food admixture, P < 0.05 vs control) was “significantly reduced”, the “lesion area of the aorta (en face analysis)” value (apoE KO mice [4]; intervention 6 + 6 weeks, 0.03% food admixture, normalized to Control at 6 weeks, control at 12 weeks 8.03%) was 4.75% and the “change of lesion area (mm^2) of aortic root vs control” value (apoE KO mice [4]; intervention 6 + 6 weeks, 0.03% food admixture, printed in Fig. 2e) was -15%. The “reduction of lesion area of the aorta (en face analysis) vs control” value (apoE KO mice [4]; intervention, 6 + 6 weeks, 0.03% food admixture with HF/HC diet) was 40.9%, the body weight change (apoE KO mice [4]; [10]) was “no remarkable changes” and the food intake (apoE KO mice [4]; [10]) was “no remarkable changes”. The tolerability (apoE KO mice [4]; [10]) was “generally well tolerated”, the “activity on cyclin-dependent kinase 1” value [5] was “no activity” and the pIC50 [5, 9] was < 5.00. The “activity on insulin-like growth factor 1 receptor kinase” value [6] was “no activity”, the pIC50 [6, 9] was < 5.00 and the “activity on insulin receptor kinase” value [7] was “no activity”. The pIC50 [7, 9] was < 5.48, the ALB [8] was 2.2 ± 0.05 g/dL and the ALP [8] was 406 ± 34^** U/L. The ALT [8] was 24 ± 1.6^** U/L, the AST [8] was 97 ± 8.0 U/L and the BUN [8] was 32 ± 1.2 mg/dL. The CPK [8] was 196 ± 76^** U/L, the CRE [8] was 0.3 ± 0.02^*** mg/dL and the LDH [8] was 295 ± 38 U/L. For the same compound, the T-BIL [8] was 0.6 ± 0.05 mg/dL, the T-Chol [8] was 714 ± 51^*** mg/dL and the TG [8] was 273 ± 21 mg/dL. For the same compound, the “cholesterol content in aorta” value (LDLr KO mice; intervention 8 + 8 weeks, P < 0.01 vs control) was “significantly reduced”, the “lesion area of the aorta (en face analysis)” value (LDLr KO mice; intervention 8 + 8 weeks, normalized to Control at 8 weeks, control at 16 weeks 8.51%) was 5.83% and the body weight change (LDLr KO mice; therapeutic intervention) was “no remarkable changes”. For the same compound, the food intake (LDLr KO mice; therapeutic intervention) was “no remarkable changes” and the tolerability (LDLr KO mice; therapeutic intervention) was “generally well tolerated”.
